# Measurements published in US20230157952A1, “METHOD FOR IMPROVING THE STABILITY OF A PHARMACEUTICAL COMPOSITION COMPRISING A HIGH PENETRATION DRUG, AND THE PHARMACEUTICAL COMPOSITION OBTAINED THEREFROM” (Techfields Inc., priority 2020, published 2023).
# Assay: Effect of temperature (and pH) on the stability of the solution (purity)
# Assay type: physicochemical
smiles,measurement,setting,value
CCN(CC)CCOC(=O)[C@H](C)c1ccc(CC(C)C)cc1.Cl,Purity (%) at day 21 (60° C.),"pH 1.02, 7% solution in water",0%
same,Purity(%) at day 21 (5° C.),"pH 1.02, 7% solution in water",93.1 ± 0.3%
same,Purity(%) at day 21 (25° C.),"pH 1.02, 7% solution in water",70.7 ± 0.4%
same,Purity(%) at day 21 (40° C.),"pH 1.02, 7% solution in water",18.5 ± 0.3%
same,Purity (%) at day 21 (60° C.),"pH 2.09, 7% solution in water",0%
same,Purity(%) at day 21 (5° C.),"pH 2.09, 7% solution in water",97.0 ± 0.4%
same,Purity(%) at day 21 (25° C.),"pH 2.09, 7% solution in water",86.0 ± 0.4%
same,Purity(%) at day 21 (40° C.),"pH 2.09, 7% solution in water",30.6 ± 0.4%
same,Purity (%) at day 21 (60° C.),"pH 3.01, 7% solution in water",8.4 ± 0.3%
same,Purity(%) at day 21 (25° C.),"pH 3.01, 7% solution in water",96.1 ± 0.3%
same,Purity(%) at day 21 (40° C.),"pH 3.01, 7% solution in water",56.1 ± 0.4%
same,Purity (%) at day 21 (60° C.),"pH 3.68, 7% solution in water",16.0 ± 0.4%
same,Purity(%) at day 21 (40° C.),"pH 3.68, 7% solution in water",64.1 ± 0.5%
same,Purity (%) at day 21 (60° C.),"pH 4.07, 7% solution in water",22.7 ± 0.4%
same,Purity(%) at day 21 (40° C.),"pH 4.07, 7% solution in water",72.6 ± 0.4%
same,Purity (%) at day 21 (60° C.),"pH 4.35, 7% solution in water",18.3 ± 0.3%
same,Purity(%) at day 21 (40° C.),"pH 4.35, 7% solution in water",72.6 ± 0.5%
same,Purity (%) at day 21 (60° C.),"pH 4.67, 7% solution in water",10.4 ± 0.5%
same,Purity(%) at day 21 (25° C.),"pH 4.67, 7% solution in water",97.5 ± 0.4%
same,Purity(%) at day 21 (40° C.),"pH 4.67, 7% solution in water",58.3 ± 0.4%
same,Purity (%) at day 21 (60° C.),"pH 4.96, 7% solution in water",4.0 ± 0.3%
same,Purity(%) at day 21 (5° C.),"pH 4.96, 7% solution in water",97.0 ± 0.4%
same,Purity(%) at day 21 (25° C.),"pH 4.96, 7% solution in water",95.1 ± 0.4%
same,Purity(%) at day 21 (40° C.),"pH 4.96, 7% solution in water",50.5 ± 0.5%
same,Purity (%) at day 21 (60° C.),"pH 5.98, 7% solution in water",0%
same,Purity(%) at day 21 (5° C.),"pH 5.98, 7% solution in water",95.8 ± 0.4%
same,Purity(%) at day 21 (25° C.),"pH 5.98, 7% solution in water",90.2 ± 0.4%
same,Purity(%) at day 21 (40° C.),"pH 5.98, 7% solution in water",29.9 ± 0.4%
same,Purity (%) at day 21 (60° C.),"pH 6.99, 7% solution in water",0%
same,Purity(%) at day 21 (5° C.),"pH 6.99, 7% solution in water",90.0 ± 0.5%
same,Purity(%) at day 21 (25° C.),"pH 6.99, 7% solution in water",77.1 ± 0.4%
same,Purity(%) at day 21 (40° C.),"pH 6.99, 7% solution in water",19.9 ± 0.4%
same,Purity (%) at day 21 (60° C.),"pH 8.01, 7% solution in water",0%
same,Purity(%) at day 0,"pH 8.01, 7% solution in water",97.6 ± 0.5%
same,Purity(%) at day 21 (5° C.),"pH 8.01, 7% solution in water",81.1 ± 0.5%
same,Purity(%) at day 21 (25° C.),"pH 8.01, 7% solution in water",52.3 ± 0.4%
same,Purity(%) at day 21 (40° C.),"pH 8.01, 7% solution in water",0%
CCN(CC)CCOC(=O)C(C)c1ccc(-c2ccccc2)c(F)c1.Cl (racemic),Purity(%) at day 21 (5° C.),"7% solution in water, pH 1.0, day 21, 5° C.",94.0 ± 0.3%
same,Purity(%) at day 21 (25° C.),"7% solution in water, pH 1.0, day 21, 25° C.",72.0 ± 0.3%
same,Purity(%) at day 21 (40° C.),"7% solution in water, pH 1.0, day 21, 40° C.",18.5 ± 0.3%
same,Purity (%) at day 21 (60° C.),"7% solution in water, pH 1.0, day 21, 60° C.",0%
same,Purity(%) at day 21 (25° C.),"7% solution in water, pH 2.0, day 21, 25° C.",86.1 ± 0.3%
same,Purity(%) at day 21 (40° C.),"7% solution in water, pH 2.0, day 21, 40° C.",30.1 ± 0.4%
same,Purity (%) at day 21 (60° C.),"7% solution in water, pH 2.0, day 21, 60° C.",0%
same,Purity(%) at day 21 (25° C.),"7% solution in water, pH 3.0, day 21, 25° C.",96.0 ± 0.2%
same,Purity(%) at day 21 (40° C.),"7% solution in water, pH 3.0, day 21, 40° C.",56.5 ± 0.3%
same,Purity (%) at day 21 (60° C.),"7% solution in water, pH 3.0, day 21, 60° C.",8.7 ± 0.3%
same,Purity(%) at day 21 (25° C.),"7% solution in water, pH 3.7, day 21, 25° C.",97.5 ± 0.1%
same,Purity(%) at day 21 (40° C.),"7% solution in water, pH 3.7, day 21, 40° C.",64.5 ± 0.3%
same,Purity (%) at day 21 (60° C.),"7% solution in water, pH 3.7, day 21, 60° C.",16.2 ± 0.3%
same,Purity(%) at day 21 (40° C.),"7% solution in water, pH 4.0, day 21, 40° C.",72.3 ± 0.3%
same,Purity (%) at day 21 (60° C.),"7% solution in water, pH 4.0, day 21, 60° C.",22.4 ± 0.3%
same,Purity(%) at day 21 (40° C.),"7% solution in water, pH 4.3, day 21, 40° C.",72.2 ± 0.3%
same,Purity (%) at day 21 (60° C.),"7% solution in water, pH 4.3, day 21, 60° C.",18.3 ± 0.2%
same,Purity(%) at day 21 (40° C.),"7% solution in water, pH 4.6, day 21, 40° C.",58.1 ± 0.4%
same,Purity (%) at day 21 (60° C.),"7% solution in water, pH 4.6, day 21, 60° C.",10.4 ± 0.3%
same,Purity(%) at day 21 (5° C.),"7% solution in water, pH 5.0, day 21, 5° C.",97.6 ± 0.2%
same,Purity(%) at day 21 (25° C.),"7% solution in water, pH 5.0, day 21, 25° C.",96.7 ± 0.2%
same,Purity(%) at day 21 (40° C.),"7% solution in water, pH 5.0, day 21, 40° C.",50.1 ± 0.3%
same,Purity (%) at day 21 (60° C.),"7% solution in water, pH 5.0, day 21, 60° C.",3.0 ± 0.3%
same,Purity(%) at day 21 (5° C.),"7% solution in water, pH 6.0, day 21, 5° C.",95.4 ± 0.2%
same,Purity(%) at day 21 (25° C.),"7% solution in water, pH 6.0, day 21, 25° C.",90.5 ± 0.3%
same,Purity(%) at day 21 (40° C.),"7% solution in water, pH 6.0, day 21, 40° C.",29.7 ± 0.4%
same,Purity (%) at day 21 (60° C.),"7% solution in water, pH 6.0, day 21, 60° C.",0%
same,Purity(%) at day 21 (5° C.),"7% solution in water, pH 7.0, day 21, 5° C.",89.7 ± 0.3%
same,Purity(%) at day 21 (25° C.),"7% solution in water, pH 7.0, day 21, 25° C.",75.1 ± 0.3%
same,Purity(%) at day 21 (40° C.),"7% solution in water, pH 7.0, day 21, 40° C.",19.8 ± 0.3%
same,Purity (%) at day 21 (60° C.),"7% solution in water, pH 7.0, day 21, 60° C.",0%
same,Purity(%) at day 21 (5° C.),"7% solution in water, pH 8.0, day 21, 5° C.",81.9 ± 0.3%
same,Purity(%) at day 21 (25° C.),"7% solution in water, pH 8.0, day 21, 25° C.",52.8 ± 0.3%
same,Purity(%) at day 21 (40° C.),"7% solution in water, pH 8.0, day 21, 40° C.",0%
same,Purity (%) at day 21 (60° C.),"7% solution in water, pH 8.0, day 21, 60° C.",0%
